From PubChem BioAssay (NCI)
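Results reflect a 48-hour exposure of cells in 96-well plates to compound at five concentrations. GI50 marks 50% less growth. TGI marks complete inhibition of growth.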

Columns and labels:
Assay in all cases: growth of human tumour cells (NCI), 48 h
HS 578T breast = test system: HS 578T breast
NCI-H226 lung = test system: NCI-H226 lung
SF-268 CNS = test system: SF-268 CNS
HCC-2998 colon = test system: HCC-2998 colon
HL-60(TB) leukemia = test system: HL-60(TB) leukemia
NCI/ADR-RES ovarian = test system: NCI/ADR-RES ovarian
UACC-62 melanoma = test system: UACC-62 melanoma
SF-539 CNS = test system: SF-539 CNS
SK-MEL-2 melanoma = test system: SK-MEL-2 melanoma
MDA-MB-468 breast = test system: MDA-MB-468 breast
EKVX NSCLC = test system: EKVX NSCLC
OVCAR-5 ovarian = test system: OVCAR-5 ovarian
HCT-15 colon = test system: HCT-15 colon
NCI-H23 lung = test system: NCI-H23 lung
COLO 205 colon = test system: COLO 205 colon
SF-295 CNS = test system: SF-295 CNS
LOX IMVI melanoma = test system: LOX IMVI melanoma
SN12C renal = test system: SN12C renal
A498 renal = test system: A498 renal
CAKI-1 renal = test system: CAKI-1 renal
M14 melanoma = test system: M14 melanoma
HCT-116 colon = test system: HCT-116 colon
HOP-92 NSCLC = test system: HOP-92 NSCLC
SK-MEL-28 melanoma = test system: SK-MEL-28 melanoma
RPMI-8226 leukemia = test system: RPMI-8226 leukemia
HT29 colon = test system: HT29 colon
U251 CNS = test system: U251 CNS
DU-145 prostate = test system: DU-145 prostate
HOP-62 NSCLC = test system: HOP-62 NSCLC
CCRF-CEM leukemia = test system: CCRF-CEM leukemia
BT-549 breast = test system: BT-549 breast
SR leukemia = test system: SR leukemia
UO-31 renal = test system: UO-31 renal
MOLT-4 leukemia = test system: MOLT-4 leukemia
T-47D breast = test system: T-47D breast
786-0 renal = test system: 786-0 renal
MDA-MB-231 breast = test system: MDA-MB-231 breast
NCI-H460 lung = test system: NCI-H460 lung
KM12 colon = test system: KM12 colon
TK-10 renal = test system: TK-10 renal
ACHN renal = test system: ACHN renal
SK-MEL-5 melanoma = test system: SK-MEL-5 melanoma
MDA-MB-435 = test system: MDA-MB-435
SK-OV-3 ovarian = test system: SK-OV-3 ovarian
OVCAR-8 ovarian = test system: OVCAR-8 ovarian
K-562 leukemia = test system: K-562 leukemia
UACC-257 melanoma = test system: UACC-257 melanoma
SNB-19 CNS = test system: SNB-19 CNS
A549 NSCLC = test system: A549 NSCLC
OVCAR-4 ovarian = test system: OVCAR-4 ovarian
SW-620 colon = test system: SW-620 colon
PC-3 prostate = test system: PC-3 prostate
RXF 393 renal = test system: RXF 393 renal
SNB-75 CNS = test system: SNB-75 CNS
OVCAR-3 ovarian = test system: OVCAR-3 ovarian
MALME-3M melanoma = test system: MALME-3M melanoma
IGROV1 ovarian = test system: IGROV1 ovarian
MCF7 breast = test system: MCF7 breast
NCI-H522 lung = test system: NCI-H522 lung

C#C[C@]1(O)CC[C@H]2[C@@H]3CC=C4c5sc(Nc6ccc(N(C)C)cc6)nc5CC[C@]4(C)[C@H]3CC[C@@]21C
GI50 (HS 578T breast): 417 nM
TGI (HS 578T breast): 3980 nM
GI50 (NCI-H226 lung): 2410 nM
TGI (NCI-H226 lung): 10900 nM
GI50 (SF-268 CNS): 1870 nM
TGI (SF-268 CNS): 10600 nM
GI50 (HCC-2998 colon): 3230 nM
TGI (HCC-2998 colon): 7820 nM
GI50 (HL-60(TB) leukemia): 2400 nM
TGI (HL-60(TB) leukemia): 12300 nM
GI50 (NCI/ADR-RES ovarian): 2540 nM
TGI (NCI/ADR-RES ovarian): 10700 nM
GI50 (UACC-62 melanoma): 1270 nM
TGI (UACC-62 melanoma): 3010 nM
GI50 (SF-539 CNS): 284 nM
TGI (SF-539 CNS): 1250 nM
GI50 (SK-MEL-2 melanoma): 1460 nM
TGI (SK-MEL-2 melanoma): 4320 nM
GI50 (MDA-MB-468 breast): 1510 nM
TGI (MDA-MB-468 breast): 4360 nM
GI50 (EKVX NSCLC): 1590 nM
TGI (EKVX NSCLC): 6490 nM
GI50 (OVCAR-5 ovarian): 2410 nM
TGI (OVCAR-5 ovarian): 8220 nM
GI50 (HCT-15 colon): 791 nM
TGI (HCT-15 colon): 2670 nM
GI50 (NCI-H23 lung): 1330 nM
TGI (NCI-H23 lung): 5140 nM
GI50 (COLO 205 colon): 2620 nM
TGI (COLO 205 colon): 6820 nM
GI50 (SF-295 CNS): 225 nM
TGI (SF-295 CNS): 557 nM
GI50 (LOX IMVI melanoma): 923 nM
TGI (LOX IMVI melanoma): 2410 nM
GI50 (SN12C renal): 2630 nM
TGI (SN12C renal): 7840 nM
GI50 (A498 renal): 1880 nM
TGI (A498 renal): 4180 nM
GI50 (CAKI-1 renal): 1740 nM
TGI (CAKI-1 renal): > 23600 nM
GI50 (M14 melanoma): 1040 nM
TGI (M14 melanoma): 4510 nM
GI50 (HCT-116 colon): 1010 nM
TGI (HCT-116 colon): 3930 nM
GI50 (HOP-92 NSCLC): 2650 nM
TGI (HOP-92 NSCLC): 17800 nM
GI50 (SK-MEL-28 melanoma): 651 nM
TGI (SK-MEL-28 melanoma): 1880 nM
GI50 (RPMI-8226 leukemia): 248 nM
TGI (RPMI-8226 leukemia): 2200 nM
GI50 (HT29 colon): 1660 nM
TGI (HT29 colon): 4300 nM
GI50 (U251 CNS): 735 nM
TGI (U251 CNS): 4440 nM
GI50 (DU-145 prostate): 2550 nM
TGI (DU-145 prostate): 10800 nM
GI50 (HOP-62 NSCLC): 1890 nM
TGI (HOP-62 NSCLC): 7380 nM
GI50 (CCRF-CEM leukemia): 812 nM
TGI (CCRF-CEM leukemia): > 86600 nM
GI50 (BT-549 breast): 642 nM
TGI (BT-549 breast): 3070 nM
GI50 (SR leukemia): 567 nM
TGI (SR leukemia): 20100 nM
GI50 (UO-31 renal): 1500 nM
TGI (UO-31 renal): 5210 nM
GI50 (MOLT-4 leukemia): 374 nM
TGI (MOLT-4 leukemia): 5530 nM
GI50 (T-47D breast): 2640 nM
TGI (T-47D breast): 15100 nM
GI50 (786-0 renal): 647 nM
TGI (786-0 renal): 5340 nM
GI50 (MDA-MB-231 breast): 1270 nM
TGI (MDA-MB-231 breast): 3330 nM
GI50 (NCI-H460 lung): 1440 nM
TGI (NCI-H460 lung): 5610 nM
GI50 (KM12 colon): 2150 nM
TGI (KM12 colon): 7110 nM
GI50 (TK-10 renal): 7560 nM
TGI (TK-10 renal): 33300 nM
GI50 (ACHN renal): 2240 nM
TGI (ACHN renal): 10800 nM
GI50 (SK-MEL-5 melanoma): 1490 nM
TGI (SK-MEL-5 melanoma): 2920 nM
GI50 (MDA-MB-435): 1660 nM
TGI (MDA-MB-435): 7370 nM
GI50 (SK-OV-3 ovarian): 1350 nM
TGI (SK-OV-3 ovarian): 3690 nM
GI50 (OVCAR-8 ovarian): 2990 nM
TGI (OVCAR-8 ovarian): 11000 nM
GI50 (K-562 leukemia): 1860 nM
TGI (K-562 leukemia): 15800 nM
GI50 (UACC-257 melanoma): 2010 nM
TGI (UACC-257 melanoma): 6690 nM
GI50 (SNB-19 CNS): 1490 nM
TGI (SNB-19 CNS): 6010 nM
GI50 (A549 NSCLC): 2500 nM
TGI (A549 NSCLC): 12500 nM
GI50 (OVCAR-4 ovarian): 2540 nM
GI50 (SW-620 colon): 1100 nM
TGI (SW-620 colon): 3470 nM
GI50 (PC-3 prostate): 999 nM
TGI (PC-3 prostate): 9290 nM
GI50 (RXF 393 renal): 190 nM
TGI (RXF 393 renal): 715 nM
GI50 (SNB-75 CNS): 1290 nM
TGI (SNB-75 CNS): 6320 nM
GI50 (OVCAR-3 ovarian): 2300 nM
TGI (OVCAR-3 ovarian): 7190 nM
GI50 (MALME-3M melanoma): 858 nM
TGI (MALME-3M melanoma): 2900 nM
GI50 (IGROV1 ovarian): 3220 nM
TGI (IGROV1 ovarian): 10100 nM
GI50 (MCF7 breast): 948 nM
TGI (MCF7 breast): 4210 nM
GI50 (NCI-H522 lung): 1490 nM
TGI (NCI-H522 lung): 3250 nM
